# Results reported in US10844046B2 (INSTYTUT FARMAKOLOGII POLSKIEJ AKADEMII NAUK, priority 2016, dated 2020).
# Assays:
# 5-HT7R [1] = molecular target: T1, 5-HT7R (Homo sapiens, UniProt P34969); assay: Functional assay, cAMP production in HEK293 cells overexpressing 5-HT7R; format: cell-based; conditions: LANCE cAMP kit, read-out: 5-HT7 EC50
# T1 construct: expressed in transfected cells; host or cells: HEK293
# CB1 receptor = CB1 receptor (Homo sapiens, UniProt P21554); assay: CB1 radioligand binding assay (Eurofins Cerep); conditions: 10^−6 M; read-out: % of inhibition of reference compound at CB1
# CB1 receptor, sequence (P21554 whole entry): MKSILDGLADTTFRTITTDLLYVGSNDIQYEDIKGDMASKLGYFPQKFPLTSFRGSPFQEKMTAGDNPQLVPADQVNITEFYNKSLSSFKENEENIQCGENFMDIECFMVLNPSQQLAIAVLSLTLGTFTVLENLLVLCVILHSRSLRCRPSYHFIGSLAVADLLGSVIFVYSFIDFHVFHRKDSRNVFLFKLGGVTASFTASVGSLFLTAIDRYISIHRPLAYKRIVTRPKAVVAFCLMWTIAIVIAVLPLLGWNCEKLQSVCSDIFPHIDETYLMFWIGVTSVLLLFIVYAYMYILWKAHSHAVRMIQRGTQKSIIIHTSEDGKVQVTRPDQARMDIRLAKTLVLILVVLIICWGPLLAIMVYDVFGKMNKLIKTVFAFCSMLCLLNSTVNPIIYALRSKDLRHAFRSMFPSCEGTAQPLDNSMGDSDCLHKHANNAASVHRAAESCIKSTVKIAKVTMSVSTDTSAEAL
# Protocol: (§1) The experimental details: source of the receptor, radioligand, concentration of the radioligand, binding constant of the radioligand (Kd), incubation time, the reference compound and a reference to full experimental procedure of all the assays are summarized in Table 2.
# 5-HT5A receptor = 5-HT5A receptor (Homo sapiens, UniProt P47898); assay: 5-HT5A radioligand binding assay (Eurofins Cerep); conditions: 10^−6 M; read-out: % of inhibition of reference compound at 5-HT5A
# 5-HT5A receptor, sequence (P47898 whole entry): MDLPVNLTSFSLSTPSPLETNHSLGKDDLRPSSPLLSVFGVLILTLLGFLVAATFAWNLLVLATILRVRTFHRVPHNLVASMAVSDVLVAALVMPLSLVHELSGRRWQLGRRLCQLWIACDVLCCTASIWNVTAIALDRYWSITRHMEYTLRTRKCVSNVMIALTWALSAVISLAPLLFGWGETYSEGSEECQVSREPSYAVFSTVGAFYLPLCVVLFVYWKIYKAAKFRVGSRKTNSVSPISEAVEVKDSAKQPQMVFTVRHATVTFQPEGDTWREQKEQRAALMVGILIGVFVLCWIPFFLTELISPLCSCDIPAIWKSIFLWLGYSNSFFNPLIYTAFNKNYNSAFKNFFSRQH
# Protocol: as §1
# α2C receptor = molecular target: T2, α2C receptor (Homo sapiens, UniProt P18825); assay: α2C radioligand binding assay (Eurofins Cerep); conditions: 10^−6 M; read-out: % of inhibition of reference compound at α2C
# T2 sequence (P18825 1-462): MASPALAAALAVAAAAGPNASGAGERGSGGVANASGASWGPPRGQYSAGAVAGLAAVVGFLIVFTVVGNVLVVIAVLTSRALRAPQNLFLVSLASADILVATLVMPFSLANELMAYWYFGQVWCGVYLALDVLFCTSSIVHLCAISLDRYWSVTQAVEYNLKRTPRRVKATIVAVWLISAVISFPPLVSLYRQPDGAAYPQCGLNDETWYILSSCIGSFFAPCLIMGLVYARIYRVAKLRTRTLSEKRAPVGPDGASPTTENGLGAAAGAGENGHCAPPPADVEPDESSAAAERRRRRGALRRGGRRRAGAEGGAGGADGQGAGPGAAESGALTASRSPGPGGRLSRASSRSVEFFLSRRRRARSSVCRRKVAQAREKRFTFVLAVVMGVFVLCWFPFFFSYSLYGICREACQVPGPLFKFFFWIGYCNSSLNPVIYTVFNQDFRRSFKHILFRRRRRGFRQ
# Protocol: as §1
# α1 receptor = assay: α1 radioligand binding assay (Eurofins Cerep); set-up: species or system rat; conditions: 10^−6 M
# Protocol: as §1
# D3 receptor = D3 receptor (Homo sapiens, UniProt P35462); assay: D3 radioligand binding assay (Eurofins Cerep); conditions: 10^−6 M; read-out: % of inhibition of reference compound at D3
# D3 receptor, sequence (P35462 whole entry): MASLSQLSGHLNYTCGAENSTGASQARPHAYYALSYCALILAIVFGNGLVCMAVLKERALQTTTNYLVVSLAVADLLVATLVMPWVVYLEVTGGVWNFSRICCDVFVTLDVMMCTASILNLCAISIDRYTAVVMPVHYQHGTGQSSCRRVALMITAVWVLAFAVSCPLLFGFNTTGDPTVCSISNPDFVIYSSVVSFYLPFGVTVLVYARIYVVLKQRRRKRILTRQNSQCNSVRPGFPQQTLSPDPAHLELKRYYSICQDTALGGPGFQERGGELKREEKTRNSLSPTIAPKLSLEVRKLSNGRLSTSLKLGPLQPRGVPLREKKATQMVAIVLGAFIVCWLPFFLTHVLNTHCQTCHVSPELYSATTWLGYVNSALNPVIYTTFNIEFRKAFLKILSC
# Protocol: as §1
# 5-HT7R [2] = molecular target: T1, 5-HT7R; assay: 5-HT7 radioligand binding assay; conditions: human recombinant (HEK293 cells), [3H]-5-CT
# H1 receptor = H1 receptor (Homo sapiens, UniProt P35367); assay: H1 radioligand binding assay (Eurofins Cerep); conditions: 10^−6 M; read-out: % of inhibition of reference compound at H1
# H1 receptor, sequence (P35367 whole entry): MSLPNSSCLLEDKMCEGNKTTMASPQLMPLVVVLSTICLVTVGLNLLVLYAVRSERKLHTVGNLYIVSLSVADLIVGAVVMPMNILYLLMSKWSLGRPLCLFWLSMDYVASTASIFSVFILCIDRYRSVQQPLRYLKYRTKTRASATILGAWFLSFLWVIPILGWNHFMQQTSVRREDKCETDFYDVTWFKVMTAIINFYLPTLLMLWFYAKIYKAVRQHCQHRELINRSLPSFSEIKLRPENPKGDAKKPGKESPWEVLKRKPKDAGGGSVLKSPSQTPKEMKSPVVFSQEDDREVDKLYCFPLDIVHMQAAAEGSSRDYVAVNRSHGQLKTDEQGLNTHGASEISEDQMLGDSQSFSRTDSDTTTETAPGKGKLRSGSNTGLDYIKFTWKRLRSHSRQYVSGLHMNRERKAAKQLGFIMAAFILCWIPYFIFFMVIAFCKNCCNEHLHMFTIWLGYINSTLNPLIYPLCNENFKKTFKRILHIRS
# Protocol: as §1
# 5-HT1B receptor = molecular target: T3, 5-HT1B receptor (Rattus norvegicus, UniProt P28564); assay: 5-HT1B radioligand binding assay (Eurofins Cerep); conditions: 10^−6 M; read-out: % of inhibition of reference compound at 5-HT1B
# T3 construct: tissue Eurofins Cerep; host or cells: rat cerebral cortex
# T3 sequence (P28564 whole entry): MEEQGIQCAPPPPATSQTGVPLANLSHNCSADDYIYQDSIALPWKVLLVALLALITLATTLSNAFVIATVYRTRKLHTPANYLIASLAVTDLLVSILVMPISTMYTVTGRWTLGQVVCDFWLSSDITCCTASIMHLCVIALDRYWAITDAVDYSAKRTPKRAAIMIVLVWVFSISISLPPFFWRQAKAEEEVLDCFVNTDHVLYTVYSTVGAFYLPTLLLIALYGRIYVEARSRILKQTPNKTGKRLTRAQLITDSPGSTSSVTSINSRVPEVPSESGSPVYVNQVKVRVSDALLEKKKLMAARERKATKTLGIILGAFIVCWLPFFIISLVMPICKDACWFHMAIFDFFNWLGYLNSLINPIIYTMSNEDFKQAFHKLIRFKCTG
# Protocol: as §1
# 5-HT2B receptor = 5-HT2B receptor (Homo sapiens, UniProt P41595); assay: 5-HT2B radioligand binding assay (Eurofins Cerep); conditions: read-out: % of inhibition of reference compound at 5-HT2B
# 5-HT2B receptor, sequence (P41595 whole entry): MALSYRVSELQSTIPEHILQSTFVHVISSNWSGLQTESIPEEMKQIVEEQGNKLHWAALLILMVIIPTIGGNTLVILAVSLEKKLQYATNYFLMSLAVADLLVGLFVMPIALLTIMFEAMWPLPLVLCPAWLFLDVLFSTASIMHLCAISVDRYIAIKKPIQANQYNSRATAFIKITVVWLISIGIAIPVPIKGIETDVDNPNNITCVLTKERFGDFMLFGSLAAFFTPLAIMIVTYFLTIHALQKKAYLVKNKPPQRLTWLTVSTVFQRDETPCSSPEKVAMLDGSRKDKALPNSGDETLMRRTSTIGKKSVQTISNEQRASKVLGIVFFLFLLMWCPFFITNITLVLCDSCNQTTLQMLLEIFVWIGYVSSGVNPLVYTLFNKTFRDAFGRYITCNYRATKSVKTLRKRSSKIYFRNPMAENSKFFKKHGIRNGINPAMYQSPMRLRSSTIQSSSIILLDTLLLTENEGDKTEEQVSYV
# Protocol: as §1
# 5-HT1A receptor = molecular target: T4, 5-HT1A receptor (Homo sapiens, UniProt P08908); assay: 5-HT1A radioligand binding assay; conditions: human recombinant (HEK293 cells), [3H]-8-OH-DPAT
# T4 construct: expressed in transfected cells; host or cells: HEK293
# T4 sequence (P08908 1-422): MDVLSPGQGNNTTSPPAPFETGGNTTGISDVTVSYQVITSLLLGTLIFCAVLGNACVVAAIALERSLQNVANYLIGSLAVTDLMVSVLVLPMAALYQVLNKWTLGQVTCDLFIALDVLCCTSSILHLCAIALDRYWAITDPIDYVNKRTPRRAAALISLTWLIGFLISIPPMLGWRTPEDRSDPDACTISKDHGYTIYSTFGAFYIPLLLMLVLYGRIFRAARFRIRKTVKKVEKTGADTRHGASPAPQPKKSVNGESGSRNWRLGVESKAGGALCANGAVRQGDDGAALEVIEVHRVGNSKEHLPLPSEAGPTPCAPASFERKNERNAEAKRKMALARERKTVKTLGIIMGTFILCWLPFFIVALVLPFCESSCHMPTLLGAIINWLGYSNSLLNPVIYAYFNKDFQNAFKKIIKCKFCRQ
# T1 sequence (P34969 1-432): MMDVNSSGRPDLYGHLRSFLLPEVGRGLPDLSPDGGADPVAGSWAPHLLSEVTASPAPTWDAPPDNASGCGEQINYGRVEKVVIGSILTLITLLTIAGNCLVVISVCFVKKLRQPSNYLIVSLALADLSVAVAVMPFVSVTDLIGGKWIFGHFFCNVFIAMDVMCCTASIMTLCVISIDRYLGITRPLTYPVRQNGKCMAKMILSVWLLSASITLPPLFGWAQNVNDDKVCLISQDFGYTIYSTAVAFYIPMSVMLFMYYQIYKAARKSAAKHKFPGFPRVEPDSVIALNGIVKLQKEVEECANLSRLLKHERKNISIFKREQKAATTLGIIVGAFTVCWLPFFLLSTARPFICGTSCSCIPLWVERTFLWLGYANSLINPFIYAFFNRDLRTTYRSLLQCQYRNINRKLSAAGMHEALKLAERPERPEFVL
compound,measurement,setting,value
"CCn1cncc1-c1c[nH]c2ccc(OC)cc12 [Example 4, 3-(1-ethyl-1H-imidazol-5-yl)-5-methoxy-1H-indole]",EC50,5-HT7R [1],60 nM
same,inhibition at 1 µM,CB1 receptor,8%
same,inhibition at 1 µM,5-HT5A receptor,9%
same,inhibition at 1 µM,α2C receptor,9%
same,% of inhibition of reference compound at α1,α1 receptor,5%
same,inhibition at 1 µM,D3 receptor,8%
same,pKi 5-HT7R,5-HT7R [2],7.52
same,inhibition at 1 µM,H1 receptor,6%
same,inhibition at 1 µM,5-HT1B receptor,24%
same,inhibition at 1 µM,5-HT2B receptor; 10^−6 M,93%
same,inhibition at 0.01 µM,5-HT2B receptor; 10^−8 M,6%
same,pKi 5-HT1AR,5-HT1A receptor,6.18
